Read-outs that look alike come from different tables or passages of the source.
Legend:
[1] = Pharmacokinetic assessment in male Wistar rats (i.v.); format: in vivo, rat
[2] = Distribution in plasma, liver and kidney in the aristolochic acid mouse model (repeated i.p.); format: in vivo; conditions: 13a 30 mg/kg b.i.d. i.p. repeated, 13 h; for concentration at 13 h: male, C57BL/6, mouse, ip, 30 mg/kg
Experimental: For PK evaluation, the compounds were administered i.p to male C57BL/6 mice in suspension (gelatine/saline 7.5%/0.62% in water) using an administration volume of 4 mL/kg. Blood samples were collected in tubes containing EDTA, plasma was separated by centrifugation and stored at −80° C. Liver and kidney samples (˜100 mg aliquots) were homogenized in three volumes of water using Precellys tissue homogenization tubes (precellys.com). 25 μL of each tissue homogenate was further diluted with 25 μL blank plasma to produce the final tissue homogenate for extraction. All samples were analyzed using protein precipitation followed by LC-MS/MS analysis. Briefly, 50 μL plasma or final tissue homogenate were mixed with 50 μL 0.5M HClO4/acetonitrile 9/1 (containing 200 ng/mL internal standard bosentan). Samples were stirred and 300 μL water was added followed by centrifugation at 5600 rpm (4° C., 10 min). 10 μL supernatant was analyzed by LC/MS analysis. Calibration standards in plasma were prepared the same way. The LC column and conditions used were: Phenomenex, Polar RP, 4 μm, 50×2.1 mm at 0.4 mL/min flow rate with a 3 min gradient from 95% solvent A to 95% solvent B (Solvent A: Water/ACN/HCOOH, 90:10:0.1+10 mM NH4 formate; Solvent B: Water/ACN/HCOOH, 10:90:0.1+10 mM NH4 formate). Mass spectrometric conditions were: Thermo TSQ Vantage with positive heated electrospray ionization in MS/MS mode. Compounds mass transitions monitored were m/z 320.7 to 119.9. PK parameters for all studies were calculated using Phoenix WinNonlin Software.
All experiments with animals were conducted in accordance with federal and local regulation at the respective study location. Kidney injury was induced by intraperitoneal (i.p). injection of aristolochic acid (AA, Sigma-Aldrich, 1×5 mg/kg) in 10 weeks old BALB/c male mice. The γ-secretase inhibitors prodrugs were diluted in NaCl 0.9% and administered i.p., starting one day before the injection of AA (day −1) and then twice daily until day 6 evening (n=5 mice/experimental group). […] The kidneys were cut in four fragments. One fragment was immediately frozen in liquid nitrogen, one fragment was included in OCT (Tissue-Tek, VWR International, Switzerland) and frozen, one fragment was frozen at −80° C. and one fragment was fixed in 4% paraformaldehyde and included in paraffin.
To investigate potential nephroprotective effects of Notch blockade using γ-secretase inhibition and to evaluate the effects of our enzyme-targeted prodrug strategy, we used the in vivo AA mouse model of acute renal tubular damage. […]
Plasma and tissue concentrations of administered compound (Table 6A-C) and formed free γ-secretase inhibitor (8) (Table 6A) or amine-SecrI (11a) (Table 6B-C) were determined following 8-day repeated i.p. administration at 10 mg/kg b.i.d. (Table 6A) or 30 mg/kg b.i.d. […] Numbers in parentheses represent relative amounts with the exposure of 11a in kidney arbitrarily set at each time point to 100%. […] BQL=below quantifiable limit.

[3] = Pharmacokinetic assessment in C57BL/6 healthy wild-type mice (i.p.); format: in vivo, mouse; conditions: C57BL/6 mice, 10 mg/kg i.p.

SMILES: CC(=O)N[C@@H](CCC(=O)NCCNC(=O)OCCN1C(=O)[C@@H](NC(=O)[C@@](C)(O)C(=O)NCC(F)(F)C(F)(F)F)[C@@H](C)Oc2ccc(F)cc21)C(=O)O [Compound 13a, (S)-2-acetamido-5-(2-((2-((2R,3S)-7-fluoro-3-((S)-2-hydroxy-2-methyl-3-oxo-3-(2,2,3,3,3-pentafluoropropylamino)propanamido)-2-methyl-4-oxo-3,4-dihydrobenzo[b][1,4]oxazepin-5(2H)-yl)ethoxy)carbonylamino)ethylamino)-5-oxopentanoic acid]
- Liver concentration of 13a ([1]; 13a 1.6 mg/kg i.v., 4 h): BQL
- Plasma concentration of 13a ([1]; 13a 1.6 mg/kg i.v., 4 h): BQL
- Kidney concentration of 13a ([1]; 13a 1.6 mg/kg i.v., 7 h): BQL
- Liver concentration of 13a ([1]; 13a 1.6 mg/kg i.v., 7 h): BQL
- Plasma concentration of 13a ([1]; 13a 1.6 mg/kg i.v., 7 h): BQL
- conversion to amine-SecrI (11a), in words ([1]; 13a i.v., 0.25 h): high conversion
- conversion to the linker-free γ-secretase inhibitor 8, in words ([1]; i.v.): never observed significant amounts
- plasma exposure, in words ([1]; i.v.): low plasma exposure
- stability in plasma, in words ([1]; i.v.): good stability in plasma
- concentration at 0.25 h ([1]; rat, kidney, iv, 13a 1.6 mg/kg i.v., 0.25 h, read-out: Kidney concentration of 13a): 188 ng/g
- concentration at 0.5 h ([1]; rat, kidney, iv, 13a 1.6 mg/kg i.v., read-out: Kidney concentration of 13a): 12.7 ng/g
- concentration at 4 h ([1]; rat, kidney, iv, 13a 1.6 mg/kg i.v., 4 h): 16.6 ng/g
- concentration at 0.25 h ([1]; rat, liver, iv, 13a 1.6 mg/kg i.v., 0.25 h, read-out: Liver concentration of 13a): 400 ng/g
- concentration at 0.5 h ([1]; rat, liver, iv, 13a 1.6 mg/kg i.v., read-out: Liver concentration of 13a): 33.4 ng/g
- concentration at 0.25 h ([1]; rat, plasma, iv, 13a 1.6 mg/kg i.v., 0.25 h, read-out: Plasma concentration of 13a): 295 ng/mL
- concentration at 0.5 h ([1]; rat, plasma, iv, 13a 1.6 mg/kg i.v., read-out: Plasma concentration of 13a): 11.2 ng/mL
- Plasma concentration of 13a ([2]; AA-exposed mice): BQL
- concentration at 13 h ([2]; kidney, AA-exposed mice, read-out: Kidney concentration of 13a): 23 ng/g
- concentration at 13 h ([2]; kidney, mice, without AA (Table 6B), read-out: Kidney concentration of 13a): 11 ng/g
- concentration at 13 h ([2]; liver, AA-exposed mice, read-out: Liver concentration of 13a): 155 ng/g
- concentration at 13 h ([2]; liver, mice, without AA (Table 6B), read-out: Liver concentration of 13a): 19 ng/g
- concentration at 13 h ([2]; plasma, mice, without AA (Table 6B), read-out: Plasma concentration of 13a): 6 ng/mL
- conversion to amine-SecrI (11a), in words [3]: high conversion
- plasma exposure, in words [3]: low plasma exposure
- Plasma concentration of administered compound ([3]; 4 h): BQL
- Kidney concentration of administered compound ([3]; 7 h): BQL
- Plasma concentration of administered compound ([3]; 7 h): BQL
- concentration at 0.5 h ([3]; male, mouse, kidney, ip, read-out: Kidney concentration of administered compound): 1030 ng/g
- concentration at 4 h ([3]; male, mouse, kidney, ip, 4 h, read-out: Kidney concentration of administered compound): 16.6 ng/g
- concentration at 0.5 h ([3]; male, mouse, liver, ip, read-out: Liver concentration of administered compound): 3570 ng/g
- concentration at 4 h ([3]; male, mouse, liver, ip, 4 h, read-out: Liver concentration of administered compound): 625 ng/g
- concentration at 7 h ([3]; male, mouse, liver, ip, 7 h, read-out: Liver concentration of administered compound): 22.3 ng/g
- concentration at 0.5 h ([3]; male, mouse, plasma, ip, read-out: Plasma concentration of administered compound): 4.88 ng/mL

Reference: patent US10632127B2, “Targeted notch pathway inhibitors” (Hoffmann-La Roche Inc., priority 2015, dated 2020)
